Assay results reported in patent EP1247803A2, “Indolinone compounds suitable for modulation of protein kinases” (Sugen, Inc., priority 1996, dated 1998).

What was measured:
FLK-1 receptor = molecular target: T1, FLK-1 receptor (Mus musculus, UniProt P35918); test: FLK-1 ELISA (kinase activity of the FLK-1 receptor in FLK-1/NIH3T3 cells, VEGF stimulated); format: cell-based
T1 construct: expressed in transfected cells; host or cells: NIH3T3 C7#3
Summary of the method: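 FLK-1-expressing NIH3T3 C7#3 cells, starved overnight in 0.1% FBS medium, were treated with compounds at a 1:200 final dilution (0.5% DMSO) for 2 h at 37 °C, with VEGF stimulation. FLK-1 kinase activity was read by ELISA on anti-rabbit IgG plates using affinity-purified anti-FLK-1 antiserum.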

PDGF-R = PDGF-R (Homo sapiens, UniProt P09619); test: PDGF-R ELISA; format: cell-based
From the text: A PDGF-R ELISA is described in International Patent Publication No. WO 96/40116, published December 19, 1996 by Tang et al.

MET = MET biochemical kinase assay; design: species or system human; concentration or dose not given beside the values
Summary of the method: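 Lysate-derived MET, or chimeric receptors, is immobilised on plates through an antibody to the human MET cytoplasmic region. Compounds are added along with kinase buffer supplying ATP and divalent metal ions, and receptor autophosphorylation is quantified by anti-phosphotyrosine ELISA.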

PDGF-R, sequence (P09619 33-1106, species assumed): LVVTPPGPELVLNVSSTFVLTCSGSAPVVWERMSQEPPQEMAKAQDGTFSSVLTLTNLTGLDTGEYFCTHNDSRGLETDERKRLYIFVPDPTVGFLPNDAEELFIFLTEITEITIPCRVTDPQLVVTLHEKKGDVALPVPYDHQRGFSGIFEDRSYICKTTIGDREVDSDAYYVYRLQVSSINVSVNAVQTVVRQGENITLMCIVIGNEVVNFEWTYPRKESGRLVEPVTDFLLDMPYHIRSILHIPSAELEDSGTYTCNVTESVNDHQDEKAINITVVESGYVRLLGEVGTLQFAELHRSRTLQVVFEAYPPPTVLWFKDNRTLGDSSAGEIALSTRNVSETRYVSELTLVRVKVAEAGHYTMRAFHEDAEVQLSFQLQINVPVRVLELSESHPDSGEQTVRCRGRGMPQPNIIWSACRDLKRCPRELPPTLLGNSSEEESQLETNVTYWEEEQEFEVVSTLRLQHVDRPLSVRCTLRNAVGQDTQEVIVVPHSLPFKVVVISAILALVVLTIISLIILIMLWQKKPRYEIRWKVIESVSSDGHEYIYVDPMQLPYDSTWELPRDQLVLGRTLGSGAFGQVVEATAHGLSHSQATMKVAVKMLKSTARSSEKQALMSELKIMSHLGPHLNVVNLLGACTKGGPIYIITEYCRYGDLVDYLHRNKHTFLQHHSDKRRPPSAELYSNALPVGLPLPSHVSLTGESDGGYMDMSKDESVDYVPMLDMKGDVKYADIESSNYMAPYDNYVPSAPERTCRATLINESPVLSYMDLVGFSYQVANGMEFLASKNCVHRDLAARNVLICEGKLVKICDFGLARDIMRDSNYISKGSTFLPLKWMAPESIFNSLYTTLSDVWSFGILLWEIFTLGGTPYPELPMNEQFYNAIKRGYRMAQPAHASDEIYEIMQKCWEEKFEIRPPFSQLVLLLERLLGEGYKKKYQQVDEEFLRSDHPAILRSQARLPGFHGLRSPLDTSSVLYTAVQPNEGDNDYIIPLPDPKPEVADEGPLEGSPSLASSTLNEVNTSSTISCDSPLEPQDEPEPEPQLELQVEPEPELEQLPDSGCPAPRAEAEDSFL
T1 sequence (P35918 20-1345): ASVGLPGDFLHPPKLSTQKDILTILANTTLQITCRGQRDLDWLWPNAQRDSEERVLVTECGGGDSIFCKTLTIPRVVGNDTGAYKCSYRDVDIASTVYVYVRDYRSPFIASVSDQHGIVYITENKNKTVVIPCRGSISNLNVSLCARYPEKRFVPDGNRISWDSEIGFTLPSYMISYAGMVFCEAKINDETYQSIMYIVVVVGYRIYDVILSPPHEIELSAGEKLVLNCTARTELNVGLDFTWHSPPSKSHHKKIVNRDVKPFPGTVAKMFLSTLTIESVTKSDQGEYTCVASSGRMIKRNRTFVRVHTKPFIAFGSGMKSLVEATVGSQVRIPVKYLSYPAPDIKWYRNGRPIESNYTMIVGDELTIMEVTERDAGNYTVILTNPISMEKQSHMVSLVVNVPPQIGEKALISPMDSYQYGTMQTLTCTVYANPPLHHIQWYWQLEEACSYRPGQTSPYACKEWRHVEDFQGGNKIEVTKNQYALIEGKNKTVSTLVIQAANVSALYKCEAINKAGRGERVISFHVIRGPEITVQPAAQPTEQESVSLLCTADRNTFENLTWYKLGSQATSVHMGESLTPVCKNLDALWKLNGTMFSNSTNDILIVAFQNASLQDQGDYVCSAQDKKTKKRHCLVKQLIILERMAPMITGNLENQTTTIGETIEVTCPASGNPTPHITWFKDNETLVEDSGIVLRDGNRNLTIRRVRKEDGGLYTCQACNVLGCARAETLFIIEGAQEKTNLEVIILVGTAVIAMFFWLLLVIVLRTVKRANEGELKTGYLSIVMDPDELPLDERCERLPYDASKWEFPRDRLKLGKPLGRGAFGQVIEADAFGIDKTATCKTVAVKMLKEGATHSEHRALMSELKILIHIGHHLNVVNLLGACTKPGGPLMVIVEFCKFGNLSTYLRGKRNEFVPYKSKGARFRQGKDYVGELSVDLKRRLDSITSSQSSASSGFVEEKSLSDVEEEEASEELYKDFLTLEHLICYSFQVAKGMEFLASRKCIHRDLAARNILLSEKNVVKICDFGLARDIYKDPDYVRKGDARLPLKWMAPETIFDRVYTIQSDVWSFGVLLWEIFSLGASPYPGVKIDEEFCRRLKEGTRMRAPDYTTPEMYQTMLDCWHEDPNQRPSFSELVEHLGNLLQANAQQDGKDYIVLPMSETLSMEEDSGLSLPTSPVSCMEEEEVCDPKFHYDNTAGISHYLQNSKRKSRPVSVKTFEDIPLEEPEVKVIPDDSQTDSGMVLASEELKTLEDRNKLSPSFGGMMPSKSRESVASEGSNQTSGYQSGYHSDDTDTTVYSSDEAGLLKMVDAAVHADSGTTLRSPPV

Compound	Fik Kinase %Inhibition (FLK-1 receptor)	PDGF Kinase %Inhibition (PDGF-R)	Met Kinase % Inhibition (MET)
O=C1Nc2c(Br)cc(Br)cc2C1=Cc1ccc(O)c(Br)c1 [10734/A09]	-7.9%	-9.5%	88.4%
CC(C)(C)c1ccc(C=C2C(=O)Nc3c(Br)cc(Br)cc32)cc1 [10734/A10]	4.4%	26.3%	55.4%
O=C1Nc2c(Br)cc(Br)cc2C1=Cc1ccc(Br)s1 [10734/A11]	6.3%	5.5%	51.9%
CCOc1cccc(C=C2C(=O)Nc3ccc(I)cc32)c1O [10734/B02]	8.5%	-2.9%	61.9%
O=C1Nc2ccc(I)cc2C1=Cc1cc(Cl)cc(Cl)c1O [10734/B03]	21.7%	13.0%	90.1%
O=C1Nc2ccc(I)cc2C1=Cc1cc(Cl)ccc1O [10734/B04]	2.8%	14.4%	88.4%
CCN(CC)c1ccc(C=C2C(=O)Nc3ccc(I)cc32)c(O)c1 [10734/B05]	-2.3%	56.3%	67.8%
O=C1Nc2ccc(I)cc2C1=Cc1ccc([N+](=O)[O-])cc1 [10734/B06]	-0.9%	0.2%	91.2%
O=C1Nc2ccc(I)cc2C1=Cc1cc(Br)cc(Br)c1O [10734/B07]	9.1%	18.8%	93.2%
O=C1Nc2ccc(I)cc2C1=Cc1cccc(F)c1O [10734/B08]	-0.5%	-2.4%	56.1%
O=C1Nc2ccc(I)cc2C1=Cc1ccc(O)c(Br)c1 [10734/B09]	-32.3%	12.6%	94.3%
CC(C)(C)c1ccc(C=C2C(=O)Nc3ccc(I)cc32)cc1 [10734/B10]	15.7%	7.7%	82.6%
O=C1Nc2ccc(I)cc2C1=Cc1ccc(Br)s1 [10734/B11]	12.6%	-5.5%	83.6%
CCOc1cccc(C=C2C(=O)Nc3ccc(Br)c(C)c32)c1O [10734/C02]	-3.9%	36.0%	78.6%
Cc1c(Br)ccc2c1C(=Cc1cc(Cl)cc(Cl)c1O)C(=O)N2 [10734/C03]	-5.6%	24.5%	88.2%
Cc1c(Br)ccc2c1C(=Cc1cc(Cl)ccc1O)C(=O)N2 [10734/C04]	-37.6%	24.5%	90.7%
CCN(CC)c1ccc(C=C2C(=O)Nc3ccc(Br)c(C)c32)c(O)c1 [10734/C05]	-10.3%	3.8%	52.7%
Cc1c(Br)ccc2c1C(=Cc1ccc([N+](=O)[O-])cc1)C(=O)N2 [10734/C06]	-1.7%	-0.2%	48.3%

Compound	Fik Kinase %Inhibition (FLK-1 receptor)	PDGF Kinase %Inhibition (PDGF-R)	Met Kinase % Inhibition (MET)
Cc1c(Br)ccc2c1C(=Cc1cc(Br)cc(Br)c1O)C(=O)N2 [10734/C07]	-2.7%	32.0%	96.8%
Cc1c(Br)ccc2c1C(=Cc1cccc(F)c1O)C(=O)N2 [10734/C08]	-34.2%	5.5%	93.2%
Cc1c(Br)ccc2c1C(=Cc1ccc(O)c(Br)c1)C(=O)N2 [10734/C09]	-13.3%	11.3%	88.6%
Cc1c(Br)ccc2c1C(=Cc1ccc(C(C)(C)C)cc1)C(=O)N2 [10734/C10]	10.1%	17.4%	11.6%
Cc1c(Br)ccc2c1C(=Cc1ccc(Br)s1)C(=O)N2 [10734/C11]	6.3%	9.1%	23.9%
CCOc1cccc(C=C2C(=O)Nc3ccc(S(=O)(=O)NC)cc32)c1O [10734/D02]	-11.5%	6.4%	46.0%
CNS(=O)(=O)c1ccc2c(c1)C(=Cc1cc(Cl)cc(Cl)c1O)C(=O)N2 [10734/D03]	17.4%	24.1%	78.6%
CNS(=O)(=O)c1ccc2c(c1)C(=Cc1cc(Cl)ccc1O)C(=O)N2 [10734/D04]	6.1%	13.5%	46.9%
CCN(CC)c1ccc(C=C2C(=O)Nc3ccc(S(=O)(=O)NC)cc32)c(O)c1 [10734/D05]	2.4%	8.2%	55.0%
CNS(=O)(=O)c1ccc2c(c1)C(=Cc1ccc([N+](=O)[O-])cc1)C(=O)N2 [10734/D06]	0.0%	-9.1%	30.6%
CNS(=O)(=O)c1ccc2c(c1)C(=Cc1cc(Br)cc(Br)c1O)C(=O)N2 [10734/D07]	14.7%	28.1%	92.0%
CNS(=O)(=O)c1ccc2c(c1)C(=Cc1cccc(F)c1O)C(=O)N2 [10734/D08]	2.5%	2.0%	49.8%
CNS(=O)(=O)c1ccc2c(c1)C(=Cc1ccc(O)c(Br)c1)C(=O)N2 [10734/D09]	-11.6%	42.2%	88.0%
CNS(=O)(=O)c1ccc2c(c1)C(=Cc1ccc(C(C)(C)C)cc1)C(=O)N2 [10734/D10]	11.1%	9.9%	20.6%
CNS(=O)(=O)c1ccc2c(c1)C(=Cc1ccc(Br)s1)C(=O)N2 [10734/D11]	9.8%	17.0%	33.9%
CCOc1cccc(C=C2C(=O)Nc3ccc(S(=O)(=O)Nc4ccc(C(F)(F)F)cc4)cc32)c1O [10734/E02]	7.9%	50.1%	66.9%
O=C1Nc2ccc(S(=O)(=O)Nc3ccc(C(F)(F)F)cc3)cc2C1=Cc1cc(Cl)cc(Cl)c1O [10734/E03]	26.9%	27.2%	99.3%
